What was measured:
[1] = target: T1, NA transporter (Rattus norvegicus, UniProt Q9WTR4); assay: Noradrenalin (NA) uptake inhibition, synaptosomes from rat brain (hypothalamus); assay type: biochemical
T1 construct: from tissue; host or cells: rat brain (hypothalamus), synaptosomes, P2 fraction
Description: b) Method for Determining Noradrenalin and 5-HT Uptake Inhibition:
Synaptosomes from rat brain regions are freshly isolated for in vitro studies, as described in the publication “The isolation of nerve endings from brain” by E. G. Gray and V. P. Whittaker, J. Anatomy 96, pages 79-88, 1962. The corresponding literature description is hereby introduced as a reference and is deemed to be part of the disclosure.
The tissue (hypothalamus for the determination of noradrenalin uptake inhibition and medulla and pons for the determination of 5-HT uptake inhibition) is homogenised in ice-cooled 0.32 M sucrose (100 mg of tissue/1 mL) in a glass homogeniser with Teflon pestle using five complete up and down strokes at 840 revolutions/minute.
The homogenate is centrifuged at 4° C. for 10 minutes at 1000 g. After subsequent centrifugation at 17000 g for 55 minutes, the synaptosomes (P2 fraction) are obtained, which are resuspended in 0.32 M […] (0.5 mL/100 mg of original weight).
The particular uptake is measured in a 96-well microtitre plate. The volume is 250 μL and the incubation proceeds at room temperature (approx. 20-25° C.) under an O2 atmosphere.
The incubation time is 7.5 minutes for [^3H]-NA and 5 minutes for [^3H]-5-HT. The 96 samples are then filtered through a Unifilter GF/B® microtitre plate (Packard) and washed with 200 mL of incubated buffer using a “Brabdel MPXRI-96T Cell-Harvester”. The Unifilter GF/B plate is dried for 1 hour at 55° C. The plate is then sealed with a Back Seal® (Packard) and 35 μL of scintillation fluid are added per well (Ultima Gold®, Packard). After sealing with a top Seal® (Packard) and establishing an equilibrium (around 5 hours), radioactivity is determined in a “Trilux 1450 Microbeta” (Wallac).
The quantity of protein used in the above determination corresponds to the values known from the literature, as for example described in “Protein measurement with the folin phenol reagent”, Lowry et al., J. Biol. Chem., 193, 265-275, 1951.
A detailed description of the method may additionally be found in the literature, for example in M. Ch. Frink, H.-H. Hennies, W. Engelberger, M. Haurand and B. Wilffert (1996) Arzneim.-Forsch./Drug Res. 46 (III), 11, 1029-1036.
The following characteristics were determined for the NA or 5-HT transporter: […]

[2] = target: T2, 5-HT transporter (Rattus norvegicus, UniProt P31652); assay: 5-HT uptake inhibition, synaptosomes from rat brain (medulla and pons); assay type: biochemical
T2 construct: from tissue; host or cells: rat brain (medulla and pons), synaptosomes, P2 fraction
T2 sequence (P31652 whole entry): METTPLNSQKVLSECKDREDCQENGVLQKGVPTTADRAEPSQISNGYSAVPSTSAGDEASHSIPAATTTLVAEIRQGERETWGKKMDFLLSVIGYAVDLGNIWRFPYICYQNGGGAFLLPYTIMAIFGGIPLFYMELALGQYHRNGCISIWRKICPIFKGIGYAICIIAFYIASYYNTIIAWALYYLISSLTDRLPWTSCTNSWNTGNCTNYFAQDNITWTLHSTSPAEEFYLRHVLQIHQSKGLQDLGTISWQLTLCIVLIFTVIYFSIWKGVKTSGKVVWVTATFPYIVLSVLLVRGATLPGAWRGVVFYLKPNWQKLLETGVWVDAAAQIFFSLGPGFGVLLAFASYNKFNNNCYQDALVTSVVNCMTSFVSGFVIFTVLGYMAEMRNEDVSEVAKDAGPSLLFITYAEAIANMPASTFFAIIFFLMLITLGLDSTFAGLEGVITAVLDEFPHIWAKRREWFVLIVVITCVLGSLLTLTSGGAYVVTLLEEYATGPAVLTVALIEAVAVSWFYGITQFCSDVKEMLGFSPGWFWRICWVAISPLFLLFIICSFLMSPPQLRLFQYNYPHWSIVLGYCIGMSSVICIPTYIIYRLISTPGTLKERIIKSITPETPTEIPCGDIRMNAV
Summary of the method: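 Freshly isolated rat brain synaptosomes (P2 fraction): hypothalamus for NA uptake, medulla/pons for 5-HT uptake. Uptake of [3H]-NA (7.5 min) or [3H]-5-HT (5 min) at room temperature under O2, stopped by filtration over GF/B. Retained radioactivity counted by scintillation.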

T1 sequence (Q9WTR4 1-597): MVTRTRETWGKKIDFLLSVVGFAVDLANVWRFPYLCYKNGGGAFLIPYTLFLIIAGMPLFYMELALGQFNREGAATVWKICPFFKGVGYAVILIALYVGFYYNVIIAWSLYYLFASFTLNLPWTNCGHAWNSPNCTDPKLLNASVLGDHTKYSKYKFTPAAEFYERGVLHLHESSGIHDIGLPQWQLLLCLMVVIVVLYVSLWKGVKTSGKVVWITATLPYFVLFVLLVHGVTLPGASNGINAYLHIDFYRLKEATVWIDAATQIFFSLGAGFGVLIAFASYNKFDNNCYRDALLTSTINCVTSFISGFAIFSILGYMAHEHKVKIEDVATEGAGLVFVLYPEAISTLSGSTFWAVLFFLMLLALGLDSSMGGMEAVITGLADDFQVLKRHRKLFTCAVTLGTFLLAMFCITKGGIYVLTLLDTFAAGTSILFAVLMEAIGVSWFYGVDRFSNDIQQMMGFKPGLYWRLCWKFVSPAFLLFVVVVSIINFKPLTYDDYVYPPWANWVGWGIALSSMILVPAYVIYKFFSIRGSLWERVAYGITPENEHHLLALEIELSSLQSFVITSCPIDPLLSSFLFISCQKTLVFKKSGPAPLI

SMILES | inhibition at 10 µM [1] | also measured
COc1ccc(Cl)cc1NC(=O)N1CCc2onc(C(=O)NCC(C)C)c2C1 [Example 24, 6,7-dihydro-4H-isoxazolo[4,5-c]pyridine-3,5-dicarboxylic acid 5-[(5-chloro-2-methoxyphenyl) amide] 3-(isobutyl-amide)] | – | NA Uptake (rat), 10 μM, % inhibition [1]: 51%
CCC(C)(CC(=O)O)CC(=O)N1CCc2onc(C(=O)Nc3ccccc3)c2C1 (centres unmarked) [Example 29, 3-ethyl-3-methyl-5-oxo-5-(3-phenylcarbamoyl-6,7-dihydro-4H-isoxazolo[4,5-c]pyridin-5-yl)-pentanoic acid] | 44% | –
O=C(c1noc2c1CN(S(=O)(=O)c1ccc(OC(F)(F)F)cc1)CC2)N(CCc1ccccc1)Cc1ccccc1 [Example 32, 5-(4-trifluoromethoxy-benzenesulfonyl)-4,5,6,7-tetrahydro-isoxazolo[4,5-c]pyridine-3-carboxylic acid benzyl-phenethyl amide] | 82% | –
O=C(NCCCc1ccccc1)c1noc2c1CN(S(=O)(=O)c1ccc(F)cc1)CC2 [Example 35, 5-(4-fluoro-benzenesulfonyl)-4,5,6,7-tetrahydro-isoxazolo[4,5-c]pyridine-3-carboxylic acid (3-phenyl-propyl) amide] | 73% | –
CC(CCc1ccccc1)NC(=O)c1noc2c1CN(S(=O)(=O)c1ccc(F)cc1)CC2 (centres unmarked) [Example 38, 5-(4-fluoro-benzenesulfonyl)-4,5,6,7-tetrahydro-isoxazolo[4,5-c]pyridine-3-carboxylic acid (1-methyl-3-phenyl-propyl) amide] | 66% | –
O=C(NC1CCN(Cc2ccc(C(F)(F)F)cc2)C1)c1noc2c1CN(S(=O)(=O)c1ccc(F)cc1)CC2 (centres unmarked) [Example 39, 5-(4-fluoro-benzenesulfonyl)-4,5,6,7-tetrahydro-isoxazolo[4,5-c]pyridine-3-carboxylic acid [1-(4-trifluoromethyl-benzyl)-pyrrolidin-3-yl]amide] | 61% | –
O=C(NC1CCCC1OCc1ccccc1)c1noc2c1CN(S(=O)(=O)c1cc(Cl)ccc1Cl)CC2 (centres unmarked) [Example 40, 5-(2,5-dichloro-benzenesulfonyl)-4,5,6,7-tetrahydro-isoxazolo[4,5-c]pyridine-3-carboxylic acid (2-benzyloxy-cyclopentyl) amide] | 71% | –
CCOC(=O)N1CCC(NC(=O)c2noc3c2CN(S(=O)(=O)c2ccc(F)cc2)CC3)CC1 [Example 43] | – | NA Uptake (rat), 10 μM, % inhibition [1]: 63%
O=C(NC1CCCC1)c1noc2c1CN(C(=O)C=Cc1ccccc1)CC2 [Example 44, 5-(3-phenyl-acryloyl)-4,5,6,7-tetrahydro-isoxazolo[4,5-c]pyridine-3-carboxylic acid cyclopentyl amide] | 76% | –
O=C(Cc1ccc(F)c(F)c1)N1CCN(C(=O)c2noc3c2CN(S(=O)(=O)c2ccc(F)cc2)CC3)CC1 [Example 48, 2-(3,4-difluoro-phenyl)-1-{4-[5-(4-fluoro-benzenesulfonyl)-4,5,6,7-tetrahydro-isoxazolo[4,5-c]pyridine-3-carbonyl]-piperazin-1-yl}-ethanone] | 61% | –
CN(C)S(=O)(=O)N1CCc2onc(C(=O)N3CCOCC3)c2C1 [Example 49, 3-(morpholine-4-carbonyl)-6,7-dihydro-4H-isoxazolo[4,5-c]pyridine-5-sulfonic acid dimethyl amide] | 73% | –
O=C(NCc1cccs1)c1noc2c1CN(C(=O)c1ccco1)CC2 [Example 50, 5-(furan-2-carbonyl)-4,5,6,7-tetrahydro-isoxazolo[4,5-c]pyridine-3-carboxylic acid (thiophen-2-ylmethyl) amide] | 71% | –
CC12CCC(C(=O)N3CCc4onc(C(=O)NCCN5CCCC5)c4C3)(OC1=O)C2(C)C (centres unmarked) [Example 51, 5-(4,7,7-trimethyl-3-oxo-2-oxa-bicyclo[2.2.1]heptane-1-carbonyl)-4,5,6,7-tetrahydro-isoxazolo[4,5-c]pyridine-3-carboxylic acid (2-pyrrolidin-1-yl-ethyl) amide] | 73% | –
O=C(NCCN1CCOCC1)c1noc2c1CN(S(=O)(=O)c1cc(Cl)c(Cl)s1)CC2 [Example 63, 5-(4,5-dichloro-thiophene-2-sulfonyl)-4,5,6,7-tetrahydro-isoxazolo[4,5-c]pyridine-3-carboxylic acid (2-morpholin-4-yl-ethyl) amide] | 77% | –
O=C(NC1CCCC1)c1noc2c1CN(C(=O)COc1ccc(Cl)cc1)CC2 [Example 81, 5-[2-(4-chlorophenoxy)-acetyl]-4,5,6,7-tetrahydro-isoxazolo[4,5-c]pyridine-3-carboxylic acid cyclopentyl amide] | 68% | –
CC(CCc1ccccc1)NC(=O)c1noc2c1CN(S(=O)(=O)c1ccc(OC(F)(F)F)cc1)CC2 (centres unmarked) [Example 96, 5-(4-trifluoromethoxy-benzenesulfonyl)-4,5,6,7-tetrahydro-isoxazolo[4,5-c]pyridine-3-carboxylic acid (1-methyl-3-phenyl-propyl) amide] | 63% | –
O=C(NC1CCN(Cc2ccc(C(F)(F)F)cc2)C1)c1noc2c1CN(S(=O)(=O)c1ccccc1)CC2 (centres unmarked) [Example 103, 5-benzenesulfonyl-4,5,6,7-tetrahydro-isoxazolo[4,5-c]pyridine-3-carboxylic acid [1-(4-trifluoromethyl-benzyl)-pyrrolidin-3-yl] amide] | 91% | –
CC(CNC(=O)c1noc2c1CN(S(=O)(=O)c1cccs1)CC2)c1ccccc1 (centres unmarked) [Example 104, 5-(thiophene-2-sulfonyl)-4,5,6,7-tetrahydro-isoxazolo[4,5-c]pyridine-3-carboxylic acid (2-phenyl-propyl) amide] | 77% | –
O=C(NCCc1ccccc1)c1noc2c1CN(C(=O)c1ccc(F)c(Cl)c1)CC2 [Example 105, 5-(3-chloro-4-fluoro-benzoyl)-4,5,6,7-tetrahydro-isoxazolo[4,5-c]pyridine-3-carboxylic acid phenethyl amide] | 62% | –
COc1ccc(OCCNC(=O)c2noc3c2CN(S(=O)(=O)c2ccc(C)cc2)CC3)cc1 [Example 109, 5-(toluene-4-sulfonyl)-4,5,6,7-tetrahydro-isoxazolo[4,5-c]pyridine-3-carboxylic acid [2-(4-methoxy-phenoxy)-ethyl] amide] | 64% | –
O=C(c1noc2c1CN(S(=O)(=O)c1cc(Cl)ccc1Cl)CC2)N1CCN(c2ccccc2Cl)CC1 [Example 110, [4-(2-chlorophenyl)-piperazin-1-yl]-[5-(2,5-dichloro-benzenesulfonyl)-4,5,6,7-tetrahydro-isoxazolo[4,5-c]pyridin-3-yl]-methanone] | 86% | –
CCOC(=O)CCNC(=O)c1noc2c1CN(C(=O)c1c(F)ccc(C)c1F)CC2 [Example 111, 3-{[5-(2,6-difluoro-3-methyl-benzoyl)-4,5,6,7-tetrahydro-isoxazolo[4,5-c]pyridine-3-carbonyl]-amino}-propionic acid ethyl ester] | 66% | –
O=C(NCCN1CCCC1)c1noc2c1CN(S(=O)(=O)c1cccc(Cl)c1)CC2 [Example 118, 5-(3-chloro-benzenesulfonyl)-4,5,6,7-tetrahydro-isoxazolo[4,5-c]pyridine-3-carboxylic acid (2-pyrrolidin-1-yl-ethyl) amide] | 63% | –
O=C(NCC1CC1)c1noc2c1CN(C(=S)NCc1ccc(Cl)cc1)CC2 [Example 129, 5-(4-chloro-benzylthiocarbamoyl)-4,5,6,7-tetrahydro-isoxazolo[4,5-c]pyridine-3-carboxylic acid cyclopropylmethyl amide] | – | inhibition at 10 µM [2]: 75%
Cc1ccc(CNC(=O)c2noc3c2CN(C(=S)Nc2c(F)c(F)c(F)c(F)c2F)CC3)o1 [Example 133, 5-pentafluorophenylthiocarbamoyl-4,5,6,7-tetrahydro-isoxazolo[4,5-c]pyridine-3-carboxylic acid (5-methyl-furan-2-ylmethyl) amide] | – | 5-HT uptake (rat), 10 μM, % inhibition [2]: 63%
CCOC(=O)CCNC(=O)c1noc2c1CN(C(=S)NCC1CCCCC1)CC2 [Example 134, 3-{[5-(cyclohexylmethyl-thiocarbamoyl)-4,5,6,7-tetrahydro-isoxazolo[4,5-c]pyridine-3-carbonyl]-amino}-propionic acid ethyl ester] | – | inhibition at 10 µM [2]: 61%
